According to US20150250892A1, “BIODEGRADABLE POLYMERIC BUFFERS” (Northeastern University, priority 2012, published 2015):

Tests used:
[1] = test system: SKOV3 cells; assay: Cytotoxicity evaluation of drug loaded HA nanoparticles on ovarian cancer cells; assay type: cell-based; settings: free drug
Description: 9) Cytotoxicity Evaluation of Drug Loaded HA Nanoparticles on Ovarian Cancer Cells: […]

[2] = test system: MDA-MB-231 breast cancer cell lines; assay: In vitro cell uptake of free doxorubicin (DOX) and DOX loaded HA polymers; assay type: cell-based; settings: 20 μM, 1 h incubation, fluorescence microscopy
Description: In order to determine the pH altering effects of the hyaluronic acid-lipid modified polymers and cellular trafficking of drugs, a model fluorescent drug, doxorubicin, was encapsulated into the unmodified and modified HA polymers and tested on MDA-MB-231 breast cancer cell lines.
After 1 h of incubation, the cells were washed thrice with PBS and the uptake of DOX in the cells was observed using a fluorescence microscope.

[3] = of the free drug; cited from earlier work
[4] = Homo sapiens, SK-OV-3, 48 hour timepoint

Molecule `CC[C@@]1(O)C(=O)OCc2c1cc1n(c2=O)Cc2cc3ccccc3nc2-1` [Camptothecin] has an IC50 [1, 4] of 820 nM.

In the case of `COc1cccc2c1C(=O)c1c(O)c3c(c(O)c1C2=O)C[C@@](O)(C(=O)CO)C[C@@H]3O[C@H]1C[C@H](N)[C@H](O)[C@H](C)O1` [Doxorubicin], the “uptake of DOX in the nucleus” value [2] is listed as “much lower in the nucleus”, the IC50 ([1]; 48 hour timepoint) is listed as 5780 nM and the logP [3] is listed as −0.5.

In the case of `COc1cc([C@@H]2c3cc4c(cc3[C@@H](O[C@@H]3O[C@@H]5CO[C@@H](C)O[C@H]5[C@H](O)[C@H]3O)[C@H]3COC(=O)[C@H]23)OCO4)cc(OC)c1O` [Etoposide], the IC50 [1, 4] is reported as 4580 nM.

For `CC(=O)[C@]1(O)Cc2c(O)c3c(c(O)c2[C@@H](O[C@H]2C[C@H](N)[C@H](O)[C@H](C)O2)C1)C(=O)c1ccccc1C3=O` [Idarubicin], the IC50 [1, 4] is given as 3820 nM and the logP [3] is given as 0.2.

Molecule `CC(=O)O[C@H]1C(=O)[C@@]2(C)[C@H]([C@H](OC(=O)c3ccccc3)[C@]3(O)C[C@H](OC(=O)[C@H](O)[C@@H](NC(=O)c4ccccc4)c4ccccc4)C(C)=C1C3(C)C)[C@]1(OC(C)=O)CO[C@@H]1C[C@@H]2O` [Paclitaxel] has an IC50 [1, 4] of 10.1 nM.

In the case of `CC[C@@]1(O)C(=O)OCc2c1cc1n(c2=O)Cc2cc3c(CN(C)C)c(O)ccc3nc2-1` [Topotecan], the IC50 [1, 4] is listed as 220 nM and the logP [3] is listed as 0.8.
